Key:
[1] = test system: RAW264.7; assay: Antiinflammatory activity in mouse RAW264.7 cells assessed as inhibition of LPS-induced nitric oxide production by measuring nitrite accumulation by Griess method; format: functional, cell-based
[2] = test system: RAW264.7; assay: Cytotoxicity in LPS-stimulated mouse RAW264.7 cells at =>100 uM by MTT assay; format: cell-based
[3] = test system: RAW264.7; assay: Antiinflammatory activity in mouse RAW264.7 cells assessed as inhibition of LPS-induced COX2 mRNA expression after 20 hrs by RT-PCR method; format: functional, cell-based
[4] = test system: RAW264.7; assay: Antiinflammatory activity in mouse RAW264.7 cells assessed as inhibition of LPS-induced iNOS mRNA expression after 20 hrs by RT-PCR method; format: functional, cell-based
[5] = test system: RAW264.7; assay: Cytotoxicity in LPS-stimulated mouse RAW264.7 cells at =>10 uM by MTT assay; format: cell-based

| Compound | IC50 ([1]; read-out: IC50) [µM] | also measured |
| --- | --- | --- |
| N=C(NCCC[C@H](N)C(=O)O)N[N+](=O)[O-] [NITROARGININE] | 37.7 |  |
| CO[C@@H]1C[C@H](O[C@H]2CC[C@@]3(C)C(=CC[C@]4(O)[C@@H]3C(=O)[C@@H]3O[C@H](C)[C@@H]5CC[C@@]4(O)[C@]35C)C2)O[C@H](C)[C@@H]1O | 62.5 |  |
| CO[C@@H]1C[C@H](O[C@H]2CC[C@@]3(C)C(=CC[C@@H]4[C@@H]3C(=O)[C@@H]3O[C@H](C)[C@@H]5CC[C@@]4(O)[C@]35C)C2)O[C@H](C)[C@@H]1O[C@@H]1O[C@H](CO)[C@@H](O)[C@H](O)[C@H]1O | > 100 |  |
| CO[C@@H]1C[C@H](O[C@H]2CC[C@@]3(C)C(=CC[C@@H]4[C@@H]3C(=O)O[C@@]43CC[C@H]4[C@H](C)OC(=O)[C@]43C)C2)O[C@H](C)[C@@H]1OC(C)=O | 60.4 |  |
| CO[C@@H]1C[C@H](O[C@H]2CC[C@@]3(C)C(=CC[C@@H]4[C@@H]3C(=O)[C@@H]3O[C@H](C)[C@@H]5CC[C@@]4(O)[C@]35C)C2)O[C@H](C)[C@@H]1OC(C)=O | 91.2 |  |
| CO[C@@H]1C[C@H](O[C@H]2CC[C@@]3(C)C(=CC[C@@H]4[C@@H]3C(=O)O[C@@]43CC[C@H]4[C@H](C)OC(=O)[C@]43C)C2)O[C@H](C)[C@@H]1O | 93.8 |  |
| COC(=O)[C@H]1[C@@H](C(=O)CC[C@H]2[C@H](C)OC(=O)[C@@H]2C)CC=C2C[C@@H](O[C@H]3C[C@@H](OC)[C@@H](O)[C@@H](C)O3)CC[C@@]21C | 87.3 | Activity [5]: Toxic |
| CC(=O)Oc1ccccc1C(=O)O [ASPIRIN] |  | IC50 [1]: 43.2 µM |
| O=C(/C=C/c1ccc(O)c(O)c1)OCCc1ccccc1 [CAFFEIC ACID PHENETHYL ESTER] | 9.3 |  |

Now from value to compound, other results behind:

| IC50 ([1]; read-out: IC50) [µM] | Compound | also measured |
| --- | --- | --- |
| 66.1 | COC(=O)[C@H]1[C@@H](C(=O)CC[C@H]2[C@H](C)OC(=O)[C@H]2C)CC=C2C[C@@H](O[C@H]3C[C@@H](OC)[C@@H](O)[C@@H](C)O3)CC[C@@]21C |  |
| 84 | CO[C@@H]1C[C@H](O[C@H]2CC[C@@]3(C)C(=CC[C@@H]4[C@@H]3C(=O)[C@]3(O)O[C@H](C)[C@@H]5CC[C@@]4(O)[C@@]53C)C2)O[C@H](C)[C@@H]1O |  |
| > 100 | CO[C@@H]1C[C@H](O[C@H]2CC[C@@]3(C)C(=CC[C@]4(O)[C@@H]3C(=O)[C@@H]3OC(C)[C@@H]5CC[C@@]4(O)[C@]35C)C2)O[C@H](C)[C@@H]1O[C@@H]1O[C@H](CO)[C@@H](O)[C@H](O)[C@H]1O (stereo partly drawn) |  |
| 12.6 | COC(=O)[C@H]1[C@@H](C(=O)CC[C@H]2[C@H](C)OC(=O)[C@H]2C)CC=C2C[C@@H](O[C@H]3C[C@@H](OC)[C@@H](OC(C)=O)[C@@H](C)O3)CC[C@@]21C | Activity [2]: Toxic; Activity [3]: Dose-dependent effect; Activity [4]: Dose-dependent effect |
| 96.5 | CO[C@@H]1C[C@H](O[C@H]2CC[C@@]3(C)C(=CC[C@@H]4[C@@H]3C(=O)[C@@H]3O[C@H](C)[C@@H]5CC[C@@]4(O)[C@]35C)C2)O[C@H](C)[C@@H]1O | Activity [2]: Toxic |
| 54.5 | CC(C)Cc1ccc(C(C)C(=O)O)cc1 (stereo not drawn) [IBUPROFEN] |  |
| 87.8 | CO[C@@H]1C[C@H](O[C@H]2CC[C@@]3(C)C(=CC[C@]4(O)[C@@H]3C(=O)[C@@H]3O[C@H](C)[C@@H]5CC[C@@]4(O)[C@]35C)C2)O[C@H](C)[C@@H]1OC(C)=O |  |
| 31.6 | COC(=O)[C@H]1[C@@H](C(=O)CC[C@H]2[C@H](C)OC(=O)[C@@H]2C)CC=C2C[C@@H](O[C@H]3C[C@@H](OC)[C@@H](OC(C)=O)[C@@H](C)O3)CC[C@@]21C |  |
| 46.5 | COc1ccc2c(c1)c(CC(=O)O)c(C)n2C(=O)c1ccc(Cl)cc1 [INDOMETHACIN] |  |

Reference: ChEMBL document CHEMBL4190201, “Anti-inflammatory 12,20-Epoxypregnane and 11,12-seco-Pregnane Glycosides from the Stems of Hoya kerrii” (J Nat Prod, 2017)
